Calls of active or inactive are those of the source. No cut-off for these calls is given here.

The target in assay [1] is T1, Protein cereblon/Hepatocyte growth factor receptor (Homo sapiens, UniProt P08581+Q96SW2). As to the kind of experiment: PROTAC activity at c-Met/CRBN in human EBC-1 cells assessed as induction of c-Met degradation at 100 nM incubated for 24 hrs by Western blotting analysis relative to control. Format: cell-based. On the technique in general: Immunoblotting shows a protein as a band on a membrane.

For assay [2], the target named is T1, Protein cereblon/Hepatocyte growth factor receptor. Kind of assay: PROTAC activity at c-Met/CRBN in human HCT-116 cells assessed as induction of c-Met degradation at 100 nM incubated for 24 hrs by Western blotting analysis relative to control. Format: cell-based.
For assay [3] the target is unchanged. As to the kind of experiment: PROTAC activity at c-Met/CRBN in human A549 cells assessed as induction of c-Met degradation at 100 nM incubated for 24 hrs by Western blotting analysis relative to control. Format: cell-based.
Assay [4] relates to EBC-1. Kind of assay: Antiproliferative activity against human EBC-1 cells assessed as cell viability incubated for 72 hrs by MTT assay. Format: functional, cell-based. The following applies: EBC-1, 72 h. On the technique in general: Tetrazolium dyes change colour on reduction, which living cells bring about.
For assay [5], the system named is EBC-1. As to the kind of experiment: Antitumor activity against human EBC-1 cells xenografted BALB/c nude mouse assessed as reduction in tumor volume at 20 mg/kg, ip administered for 7 days. The assay is classed as functional. Also noted: scale not given: the % may be the effect or the level left. The note with it: time 7 day.
A further assay deals with Hs746T. Kind of assay: Antiproliferative activity against human Hs746T cells assessed as cell viability incubated for 72 hrs by MTT assay. The assay is classed as functional, cell-based.
A further assay relates to MKN-45. Kind of assay: Antiproliferative activity against human MKN-45 cells assessed as cell viability incubated for 72 hrs by MTT assay. Format: functional, cell-based. The following applies: MKN-45, 72 h.
The next assay relates to A549. Kind of assay: Antiproliferative activity against human A549 cells assessed as cell viability incubated for 72 hrs by MTT assay. The assay is classed as functional, cell-based. The note with it: A549, 72 h.
For a further assay, the system named is HCT-116. Kind of assay: Antiproliferative activity against human HCT-116 cells assessed as cell viability incubated for 72 hrs by MTT assay. The note with it: HCT-116, 72 h. The assay is classed as functional, cell-based.

T1 sequence (P08581 25-1390 limits assumed): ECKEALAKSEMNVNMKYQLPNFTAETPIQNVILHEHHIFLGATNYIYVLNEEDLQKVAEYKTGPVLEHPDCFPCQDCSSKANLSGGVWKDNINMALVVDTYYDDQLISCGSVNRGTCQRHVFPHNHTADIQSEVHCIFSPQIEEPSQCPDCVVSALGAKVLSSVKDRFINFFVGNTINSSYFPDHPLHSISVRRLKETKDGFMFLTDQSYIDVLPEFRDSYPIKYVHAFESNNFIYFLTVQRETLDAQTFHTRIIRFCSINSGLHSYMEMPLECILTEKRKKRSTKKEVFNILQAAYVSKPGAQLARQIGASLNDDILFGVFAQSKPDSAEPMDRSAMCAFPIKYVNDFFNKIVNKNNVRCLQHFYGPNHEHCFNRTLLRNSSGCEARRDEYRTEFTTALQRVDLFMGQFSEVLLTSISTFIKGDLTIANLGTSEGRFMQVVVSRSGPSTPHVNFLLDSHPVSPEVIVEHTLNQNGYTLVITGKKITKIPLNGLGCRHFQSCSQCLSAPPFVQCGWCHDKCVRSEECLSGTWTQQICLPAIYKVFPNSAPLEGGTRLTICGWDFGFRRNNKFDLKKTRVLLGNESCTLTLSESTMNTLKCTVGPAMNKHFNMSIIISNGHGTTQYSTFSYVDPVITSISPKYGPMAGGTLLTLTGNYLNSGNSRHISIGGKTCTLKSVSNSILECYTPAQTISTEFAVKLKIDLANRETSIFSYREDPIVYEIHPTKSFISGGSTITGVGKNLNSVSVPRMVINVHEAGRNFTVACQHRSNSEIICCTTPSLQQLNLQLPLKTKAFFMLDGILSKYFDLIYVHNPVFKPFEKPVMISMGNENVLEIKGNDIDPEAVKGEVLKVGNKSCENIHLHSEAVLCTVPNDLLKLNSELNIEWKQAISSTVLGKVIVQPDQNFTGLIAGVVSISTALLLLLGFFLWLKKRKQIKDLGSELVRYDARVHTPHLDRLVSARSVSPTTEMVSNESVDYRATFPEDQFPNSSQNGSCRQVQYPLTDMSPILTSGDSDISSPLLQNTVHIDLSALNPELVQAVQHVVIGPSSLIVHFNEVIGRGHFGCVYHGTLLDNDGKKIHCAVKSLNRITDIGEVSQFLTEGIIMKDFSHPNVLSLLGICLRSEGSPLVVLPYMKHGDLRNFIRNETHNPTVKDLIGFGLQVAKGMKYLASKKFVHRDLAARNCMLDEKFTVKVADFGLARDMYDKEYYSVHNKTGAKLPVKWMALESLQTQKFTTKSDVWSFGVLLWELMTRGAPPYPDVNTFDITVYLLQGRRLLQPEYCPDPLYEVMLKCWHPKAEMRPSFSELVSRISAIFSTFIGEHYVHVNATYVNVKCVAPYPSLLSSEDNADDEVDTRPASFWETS
T1 sequence (Q96SW2 whole entry partner): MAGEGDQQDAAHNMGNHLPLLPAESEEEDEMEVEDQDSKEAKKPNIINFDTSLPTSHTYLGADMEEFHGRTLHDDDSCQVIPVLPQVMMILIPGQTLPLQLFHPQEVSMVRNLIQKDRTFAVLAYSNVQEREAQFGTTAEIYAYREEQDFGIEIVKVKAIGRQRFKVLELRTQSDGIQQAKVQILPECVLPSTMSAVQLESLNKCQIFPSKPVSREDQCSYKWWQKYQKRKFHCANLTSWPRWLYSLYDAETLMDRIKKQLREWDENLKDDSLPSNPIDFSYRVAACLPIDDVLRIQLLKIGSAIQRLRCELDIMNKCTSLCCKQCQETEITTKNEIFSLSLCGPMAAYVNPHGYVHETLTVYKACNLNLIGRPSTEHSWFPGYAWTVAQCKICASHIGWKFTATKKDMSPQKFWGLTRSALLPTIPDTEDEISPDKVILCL

As for `N#Cc1cccc(-c2ccc(=O)n(Cc3cccc(-c4ncc(OCC5CCN(C(=O)CCCCNC(=O)CC67C[C@H]8C[C@@H](C6)C[C@@H](C7)C8)CC5)cn4)c3)n2)c1`, in assay [1], the Activity came out at 2.8%. The result in assay [2] and in assay [3] was inactive.
Turning to `N#Cc1cccc(-c2ccc(=O)n(Cc3cccc(-c4ncc(OCC5CCN(C(=O)CCCCNC(=O)C(c6ccccc6)c6ccccc6)CC5)cn4)c3)n2)c1`, in assay [1], the Activity is 4.4%. Also, the result in assay [2] and in assay [3] was inactive.
As to `COc1ccc(C(=O)NCCCCCCN2CCC(COc3cnc(-c4cccc(Cn5nc(-c6cccc(C#N)c6)ccc5=O)c4)nc3)CC2)cc1N1CCC(=O)NC1=O`, the outcome in assay [1], in [2] and in assay [3] was inactive.
As for `COc1ccc(C(=O)N2CCN(C(=O)CN3CCC(COc4cnc(-c5cccc(Cn6nc(-c7cccc(C#N)c7)ccc6=O)c5)nc4)CC3)CC2)cc1N1CCC(=O)NC1=O`, the outcome in assay [1], in [2] and in assay [3] was inactive.
For the compound `N#Cc1cccc(-c2ccc(=O)n(Cc3cccc(-c4ncc(OCC5CCN(C(=O)C6CC7C=CC6C7)CC5)cn4)c3)n2)c1` (stereo not given), in assay [1], the Activity worked out at 22.4%. In addition, the result in assay [2] and in assay [3] was inactive.
Consider `COc1ccc(C(=O)N2CCC3(CC2)CN(C(=O)CN2CCC(COc4cnc(-c5cccc(Cn6nc(-c7cccc(C#N)c7)ccc6=O)c5)nc4)CC2)C3)cc1N1CCC(=O)NC1=O`, for which, in [1], the Activity worked out at 37.7%. The outcome in assay [2] and in [3] was inactive.
With `CN1CCC(COc2cnc(-c3cccc(Cn4nc(-c5cccc(C#N)c5)ccc4=O)c3)nc2)CC1` [TEPOTINIB], the IC50 amounted to 0.012 µM with EBC-1 [4]; 0.038 µM with Hs746T; 0.063 µM with MKN-45; 13.5 µM in the assay with A549; 4.94 µM in the assay with HCT-116. The Activity with EBC-1 [5] turned out to be 74.5%.
Take `CC(C)Cc1ccc([C@H](C)C(=O)N2CCC(COc3cnc(-c4cccc(Cn5nc(-c6cccc(C#N)c6)ccc5=O)c4)nc3)CC2)cc1`: the Activity in assay [1] turned out to be 23.3%. The outcome in assay [2] and in [3] was inactive.
As to `COc1ccc(C(=O)N2CCC3(CCN(C(=O)CN4CCC(COc5cnc(-c6cccc(Cn7nc(-c8cccc(C#N)c8)ccc7=O)c6)nc5)CC4)C3)CC2)cc1N1CCC(=O)NC1=O`, the Activity in assay [1] turned out to be 74.6%. Moreover, the outcome in [2] and in assay [3] was inactive.
Regarding `N#Cc1cccc(-c2ccc(=O)n(Cc3cccc(-c4ncc(OCC5CCN(C(=O)C(C6CCCCC6)C6CCCCC6)CC5)cn4)c3)n2)c1`, the result in [1], in assay [2] and in [3] was inactive.
With `N#Cc1cccc(-c2ccc(=O)n(Cc3cccc(-c4ncc(OCC5CCN(C(=O)CCCCNC(=O)C(C6CCCCC6)C6CCCCC6)CC5)cn4)c3)n2)c1`, the Activity in assay [1] was 0.9%. The result in [2] and in assay [3] was inactive.
`N#Cc1cccc(-c2ccc(=O)n(Cc3cccc(-c4ncc(OCC5CCN(C(=O)C[C@]67CC8CC(C[C@H](C8)C6)C7)CC5)cn4)c3)n2)c1`: the Activity in assay [1] was found to be 1.5%. Besides, the result in assay [2] and in [3] was inactive.
With `N#Cc1cccc(-c2ccc(=O)n(Cc3cccc(-c4ncc(OCC5CCN(C(=O)C(c6ccccc6)c6ccccc6)CC5)cn4)c3)n2)c1`, the Activity in assay [1] was 2.7%. Also, the outcome in [2] and in assay [3] was inactive.
With `COc1ccc(C(=O)N2CCC3(CCN(C(=O)CCCCN4CCC(COc5cnc(-c6cccc(Cn7nc(-c8cccc(C#N)c8)ccc7=O)c6)nc5)CC4)CC3)CC2)cc1N1CCC(=O)NC1=O`, in assay [1], the Activity was 83.7%. For the same compound, the outcome in assay [2] and in assay [3] was inactive.
In the case of `COc1ccc(C(=O)N2CC3CC(CN(C(=O)CN4CCC(COc5cnc(-c6cccc(Cn7nc(-c8cccc(C#N)c8)ccc7=O)c6)nc5)CC4)C3)C2)cc1N1CCC(=O)NC1=O`, the result in assay [1], in [2] and in assay [3] was inactive.
As for `COc1ccc(C(=O)N2CCC3(CCN(C(=O)CCCCCN4CCC(COc5cnc(-c6cccc(Cn7nc(-c8cccc(C#N)c8)ccc7=O)c6)nc5)CC4)CC3)CC2)cc1N1CCC(=O)NC1=O`, in [1], the Activity is 79.1%. Further, the result in [2] and in assay [3] was inactive.
For the compound `COc1ccc(C(=O)NCCCCN2CCC(COc3cnc(-c4cccc(Cn5nc(-c6cccc(C#N)c6)ccc5=O)c4)nc3)CC2)cc1N1CCC(=O)NC1=O`, the outcome in assay [1], in assay [2] and in assay [3] was inactive.
As for `COc1ccc(C(=O)N2CCC3(CCN(C(=O)CCN4CCC(COc5cnc(-c6cccc(Cn7nc(-c8cccc(C#N)c8)ccc7=O)c6)nc5)CC4)CC3)CC2)cc1N1CCC(=O)NC1=O`, the Activity in assay [1] is 85.6%. In addition, the result in assay [2] and in [3] was inactive.
With `N#Cc1cccc(-c2ccc(=O)n(Cc3cccc(-c4ncc(OCC5CCN(C(=O)CCCCNC(=O)C6CC7C=CC6C7)CC5)cn4)c3)n2)c1` (stereo not given), in assay [1], the Activity turned out to be 12.4%. The outcome in assay [2] and in assay [3] was inactive.
As for `CC(C)Cc1ccc([C@H](C)C(=O)NCCCCC(=O)N2CCC(COc3cnc(-c4cccc(Cn5nc(-c6cccc(C#N)c6)ccc5=O)c4)nc3)CC2)cc1`, the result in assay [1], in assay [2] and in [3] was inactive.
For the compound `COc1ccc(C(=O)N2CC3CN(C(=O)CN4CCC(COc5cnc(-c6cccc(Cn7nc(-c8cccc(C#N)c8)ccc7=O)c6)nc5)CC4)CC3C2)cc1N1CCC(=O)NC1=O` (stereo not given), the outcome in [1], in [2] and in assay [3] was inactive.
Consider `COc1ccc(C(=O)N2CCC3(CCN(C(=O)CN4CCC(COc5cnc(-c6cccc(Cn7nc(-c8cccc(C#N)c8)ccc7=O)c6)nc5)CC4)C3)C2)cc1N1CCC(=O)NC1=O` (stereo not given), for which the Activity in assay [1] was 54.1%. In addition, the outcome in assay [2] and in assay [3] was inactive.
As to `N#Cc1cccc(-c2ccc(=O)n(Cc3cccc(-c4ncc(OCC5CCN(C(=O)C6c7ccccc7-c7ccccc76)CC5)cn4)c3)n2)c1`, the Activity in assay [1] was 13.4%. For the same compound, the result in assay [2] and in assay [3] was inactive.
For the compound `N#Cc1cccc(-c2ccc(=O)n(Cc3cccc(-c4ncc(OCC5CCN(C(=O)CCCCNC(=O)C6c7ccccc7-c7ccccc76)CC5)cn4)c3)n2)c1`, the Activity in [1] turned out to be 4.1%. The outcome in assay [2] and in assay [3] was inactive.

The IC50 is the midpoint of a concentration-inhibition curve.
